# Source: patent US11634624B2, “Surfactants for enhanced oil recovery” (MOL MAGYAR OLAJ- ÉS GÁZIPARI NYILVÁNOSAN MŰKÖDŐ …, priority 2018, dated 2023)
# What was measured:
# [1] = Interfacial tension (IFT), spinning drop; assay type: physicochemical; details: for IFT (mN/m), concentration 0.1 g/l / IFT (mN/m), concentration 1 g/l / IFT (mN/m), concentration 5 g/l: commercial surfactants; for IFT (mN/m) 0.1 g/l / IFT (mN/m) 1.0 g/l: 40° C., 4500 rpm
# Method: The interfacial tension (IFT) in the following examples is measured in a spinning drop type tensile meter at 4500 rpm at 40° C. temperature. The test capillary was filled with various concentrations of surfactant solution into which a drop of oil of Algyő type oil was injected through a syringe. In steady state, the interfacial tension between the surfactant solution and the crude oil can be calculated based on the geometric dimensions of the droplet taken by the oil drop.
# [2] = assay type: physicochemical
# Text: For the test, the prepared surfactant solution samples were filled into a clean, dry cuvette and then scattered in a spectrophotometer at 500 nm wavelength using a nephelometric pad at ambient temperature. The turbidity of the sample to be tested is compared to the light scattering of pure water (0%) and the reference opal body (100%).
# [3] = Thermal (heat/hydrolytic) stability, 90° C., 3 hours, transmittance; assay type: physicochemical; details: for Heat stability (90° C., 3 hours), appearance: appearance symbol; for Heat stability (90° C., 3 hours) (%): turbidity number
# [4] = Oil solubility (turbidity of 1% in model oil); assay type: physicochemical; details: for Solubility in oil, appearance / dissolution: symbol or word
# Method: In the course of the test, 0.2 g of the surfactant to be tested is weighed into 20 g of model oil and then dissolved for 1 hour at 60° C. with vigorous stirring. After cooling, the samples were poured into a clean, dry cuvette and then scattered at 500 nm with a spectrophotometer at ambient temperature. As reference, the light scattering of pure oil (0%) and standard opal body (100%) is used.
Compound,"IFT (mN/m), concentration 0.1 g/l [1] [mN/m]","IFT (mN/m), concentration 1 g/l [1] [mN/m]","IFT (mN/m), concentration 5 g/l [1] [mN/m]",Water solubility [2] [%],Water solubility (%) [2] [%],"Water solubility, appearance [2]",IFT (mN/m) 0.1 g/l [1] [mN/m],IFT (mN/m) 1.0 g/l [1] [mN/m],"Heat stability (90° C., 3 hours), appearance [3]","Heat stability (90° C., 3 hours) (%) [3] [%]","Solubility in oil, appearance / dissolution [4]",Solubility in oil (%) ([4]; turbidity number)
"CCCCCCCCCCCCc1ccc(S(=O)(=O)[O-])cc1.[Na+] [DBSNa-salt 30% solution, Sodium salt of dodecylbenzylsulfonic acid, reference compound]",0.34,0.63,0.88,,,,,,,,,
"2-methylpentane-1,5-diammonium-bis(C14-C17 sec-alkylsulphonate) [Example 5]",,,,100,100,m.,,,,,,
CCCCCCCCCCCCc1ccc(S(=O)(=O)O)cc1.CCCCCCCCCCCCc1ccc(S(=O)(=O)O)cc1.CN(C)CCCNCCCN(C)C.Cl [Example 38],,,,,,,0.15,0.16,op.,31,,
CCCCCCCCCCCCc1ccc(S(=O)(=O)O)cc1.CCCCCCCCCCCCc1ccc(S(=O)(=O)O)cc1.NCCCCCCN [Example 21],,,,,100,m.,0.019,0.015,m.,100,n.o.,
"CC(O)CO (stereo not drawn) [Propylene glycol, reference compound]",11.53,16.14,15.4,,,,,,,,,
CCCCCCCCCCCCc1ccc(S(=O)(=O)O)cc1.CCCCCCCCCCCCc1ccc(S(=O)(=O)O)cc1.NCCCOCCCCOCCCN [Example 24],,,,,100,m.,0.042,0.103,op.,100,op.,18
CCCCCCCCCCCCc1ccc(S(=O)(=O)O)cc1.CCCCCCCCCCCCc1ccc(S(=O)(=O)O)cc1.NCCCCN [Example 23],,,,,100,m.,0.120,0.170,b.,20,n.o.,
bis(C14-C17 sec-alkyl)-sulphonate-poly (propylene-glycol)-bis-(2-ammonium-propyl)-ether salt [Example 3],,,,4,,,,,,,,
